18 compounds from patent publication US10851073B2, “Protein tyrosine phosphatase inhibitors and methods of use thereof” (Calico Life Sciences LLC, priority 2019, dated 2020) can be followed below.

Experiment [1] addresses T1, His tagged full-length PTPN1 protein (Homo sapiens, UniProt P18031).
T1 construct: made in house
T1 sequence (P18031 with tags, fused parts or gaps): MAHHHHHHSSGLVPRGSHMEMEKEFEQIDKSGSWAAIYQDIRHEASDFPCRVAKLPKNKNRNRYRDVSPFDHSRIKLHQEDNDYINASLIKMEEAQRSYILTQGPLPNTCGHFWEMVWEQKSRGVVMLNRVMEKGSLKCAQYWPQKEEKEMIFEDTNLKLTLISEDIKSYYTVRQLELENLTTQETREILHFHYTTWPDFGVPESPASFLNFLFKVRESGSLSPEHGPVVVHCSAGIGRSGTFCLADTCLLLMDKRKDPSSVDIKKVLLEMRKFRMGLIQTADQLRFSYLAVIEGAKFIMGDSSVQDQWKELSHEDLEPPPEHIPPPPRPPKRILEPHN
The experiment can be described thus: Mobility shift assay (MSA) used to determine potency of PTPN1 inhibitors. Particulars: enzyme 0.5 nM, substrate 2 μM. The class given is biochemical. How it is done:
Example 228: Mobility Shift Assay (MSA) Used to Determine Potency of PTPN1 Inhibitors
Compound activity was determined using in house His tagged full-length PTPN1 protein (SEQ ID NO: 3) in an in vitro enzymatic reaction. The enzymatic assay used to determine activity is a mobility shift assay using a LabChip EZ Reader by Caliper Life Sciences. The enzymatic reaction was carried out in assay buffer (50 mM HEPES pH 7.5, 1 mM EGTA, 10 mM EDTA, 0.01% Tween® 20, and 2 mM DTT). The compounds were dispensed on a white 384 well ProxiPlate™ (PerkinElmer Cat^# 6008289) plate using a Labcyte Echo® liquid handler at varying concentrations (12 point, 1:3 dilution). The enzyme (at 0.5 nM) was incubated with compound for 10 minutes at room temperature. Then the substrate (phosphorylated insulin receptor probe sequence: ((OG488)-(NH—CH2—CH2—O—CH2—CH2—O—CH2—CO)-T-R-D-I-(PY)-E-T-D-Y-Y-R-K-K-NH2) (SEQ ID NO: 2) was added at 2 μM to the plates and incubated for another 10 minutes at room temperature. Finally, a quench solution (water and 4-bromo-3-(2-oxo-2-propoxyethoxy)-5-(3-{[1-(phenylmethanesulfonyl)piperidin-4-yl]amino}phenyl)thiophene-2-carboxylic acid) was added to the plates, which were then run on the EZ Reader (excitation 488 nm, emission 530 nm) to measure % conversion (the amount of phosphorylated substrate which was de-phosphorylated by PTPN1). […] The % inhibition was then used to calculate the IC50 values.

For experiment [2], the target named is T2, His tagged PTPN2 (TC45) protein (Homo sapiens, UniProt P17706).
T2 construct: made in house
T2 sequence (P17706 with tags, fused parts or gaps isoform P17706-2): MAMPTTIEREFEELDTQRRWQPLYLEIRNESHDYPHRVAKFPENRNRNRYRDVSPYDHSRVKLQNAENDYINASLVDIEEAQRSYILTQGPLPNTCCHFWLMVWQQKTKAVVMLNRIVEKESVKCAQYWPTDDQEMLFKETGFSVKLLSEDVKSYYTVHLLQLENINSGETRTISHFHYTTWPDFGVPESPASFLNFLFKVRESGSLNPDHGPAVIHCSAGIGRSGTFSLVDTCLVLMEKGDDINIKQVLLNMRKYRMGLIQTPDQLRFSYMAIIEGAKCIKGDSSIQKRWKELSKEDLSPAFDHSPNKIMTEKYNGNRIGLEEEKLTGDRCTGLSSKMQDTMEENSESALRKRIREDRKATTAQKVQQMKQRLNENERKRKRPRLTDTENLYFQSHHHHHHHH
As to the kind of experiment: Mobility shift assay used to determine potency of PTPN2 inhibitors. In kind it is biochemical. Particulars: enzyme 0.5 nM, substrate 2 μM; read-out: PTPN2 MSA IC50. How it is done:
Example 227: Mobility Shift Assay Used to Determine Potency of PTPN2 Inhibitors
Compound activity was determined using in house His tagged PTPN2 (TC45) protein (SEQ ID NO: 1) in an in vitro enzymatic reaction. The enzymatic assay used to determine activity was a mobility shift assay using a LabChip EZ Reader by Caliper Life Sciences. The enzymatic reaction was carried out in assay buffer (50 mM HEPES pH 7.5, 1 mM EGTA, 10 mM EDTA, 0.01% Tween® 20, and 2 mM DTT). The compounds were dispensed on a white 384 well ProxiPlate™ (PerkinElmer Catalog #6008289) plate using the Labcyte Echo at varying concentrations (12 point, 1:3 dilution). The enzyme (at 0.5 nM) was incubated with compound for 10 minutes at room temperature. Then the substrate (phosphorylated insulin receptor probe sequence: ((OG488)-(NH—CH2—CH2—O—CH2—CH2—O—CH2—CO)-T-R-D-I-(PY)-E-T-D-Y-Y-R-K-K-NH2) (SEQ ID NO: 2) was added at 2 μM to the plates and incubated for another 10 minutes at room temperature. Finally, a quench solution (water and 4-bromo-3-(2-oxo-2-propoxyethoxy)-5-(3-{[1-(phenylmethanesulfonyl)piperidin-4-yl]amino}phenyl)thiophene-2-carboxylic acid) was added to the plates, which were then run on the EZ Reader (excitation 488 nm, emission 530 nm) to measure % conversion (the amount of phosphorylated substrate which was de-phosphorylated by PTPN2). […] The % inhibition was then used to calculate the IC50 values.

Regarding `CC(C)CC(=N)NC1CCc2cc(O)c(N3CC(=O)NS3(=O)=O)c(F)c2C1` (stereo not drawn) [Compound 195, N-[8-fluoro-6-hydroxy-7-(1,1,4-trioxo-1λ^6,2,5-thiadiazolidin-2-yl)-1,2,3,4-tetrahydronaphthalen-2-yl]-3-methylbutanimidamide], the IC50 in experiment [1] and in experiment [2] was 10 to 100 nM each time.
As for `O=C1CN(c2c(O)cc3c(c2F)CN(CC(O)C2CCCCC2)CC3)S(=O)(=O)N1` (stereo not drawn) [Compound 215, 5-[2-(2-cyclohexyl-2-hydroxyethyl)-8-fluoro-6-hydroxy-1,2,3,4-tetrahydroisoquinolin-7-yl]-1λ^6,2,5-thiadiazolidine-1,1,3-trione], the IC50 in experiment [1] and in experiment [2] was greater than 100 nM each time.
With `O=C1CN(c2c(O)cc3c(c2F)CN(CC2CC4CCC2O4)CC3)S(=O)(=O)N1` (stereo not drawn) [Compound 222, 5-{8-fluoro-6-hydroxy-2-[(7-oxabicyclo[2.2.1]heptan-2-yl)methyl]-1,2,3,4-tetrahydroisoquinolin-7-yl}-1λ^6,2,5-thiadiazolidine-1,1,3-trione], the 50% inhibitory concentration (IC50) in experiment [1] and in experiment [2] was 10 to 100 nM in each case.
With `O=C1CN(c2c(O)cc3c(c2F)CN(CCC24CCC(CC2)C4)CC3)S(=O)(=O)N1` [Compound 239, 5-{2-[2-(bicyclo[2.2.1]heptan-1-yl)ethyl]-8-fluoro-6-hydroxy-1,2,3,4-tetrahydroisoquinolin-7-yl}-1λ^6,2,5-thiadiazolidine-1,1,3-trione], the concentration for half-maximal inhibition (IC50) in experiment [1] and in experiment [2] was 1 to 10 nM throughout.
For the compound `C=CCC1(N)CCc2cc(O)c(N3CC(=O)NS3(=O)=O)c(F)c2C1` (stereo not drawn) [Compound 240, 5-[7-amino-1-fluoro-3-hydroxy-7-(prop-2-en-1-yl)-5,6,7,8-tetrahydronaphthalen-2-yl]-1λ^6,2,5-thiadiazolidine-1,1,3-trione], the IC50 (in general, the concentration needed to halve the response being measured) was greater than 100 nM in experiment [1] and 10 to 100 nM in experiment [2].
Take `CC(O)CCN1CCc2cc(O)c(N3CC(=O)NS3(=O)=O)c(F)c2C1` (stereo not drawn) [Compound 242, 5-[8-fluoro-6-hydroxy-2-(3-hydroxybutyl)-1,2,3,4-tetrahydroisoquinolin-7-yl]-1λ^6,2,5-thiadiazolidine-1,1,3-trione]: the half-inhibitory concentration (IC50) in experiment [1] and in experiment [2] was 10 to 100 nM in each case.
With `O=C1CN(c2c(O)cc3c(c2F)CN(C(=O)NCC2CCOC2)CC3)S(=O)(=O)N1` (stereo not drawn) [Compound 270, 8-fluoro-6-hydroxy-N-[(oxolan-3-yl)methyl]-7-(1,1,4-trioxo-1λ^6,2,5-thiadiazolidin-2-yl)-3,4-dihydroisoquinoline-2(1H)-carboxamide], the 50% inhibitory concentration (IC50) in experiment [1] and in experiment [2] was 10 to 100 nM in each case.
On to `O=C1CN(c2c(O)cc3c(c2F)CC(CNCCCC2CC2)C3)S(=O)(=O)N1` (stereo not drawn) [Compound 274, 5-(2-{[(3-cyclopropylpropyl)amino]methyl}-4-fluoro-6-hydroxy-2,3-dihydro-1H-inden-5-yl)-1λ^6,2,5-thiadiazolidine-1,1,3-trione], for which the IC50 in experiment [1] and in experiment [2] was 1 to 10 nM each time.
For the compound `CC(C)CNCC1Cc2cc(O)c(N3CC(=O)NS3(=O)=O)c(F)c2C1` (stereo not drawn) [Compound 275, 5-(4-fluoro-6-hydroxy-2-{[(2-methylpropyl)amino]methyl}-2,3-dihydro-1H-inden-5-yl)-1λ^6,2,5-thiadiazolidine-1,1,3-trione], the IC50 in experiment [1] and in experiment [2] was 10 to 100 nM each time.
`Cc1noc(C)c1CNC1CCc2cc(O)c(N3CC(=O)NS3(=O)=O)c(F)c2C1` (stereo not drawn) [Compound 287, 5-(7-{[(3,5-dimethyl-1,2-oxazol-4-yl)methyl]amino}-1-fluoro-3-hydroxy-5,6,7,8-tetrahydronaphthalen-2-yl)-1λ^6,2,5-thiadiazolidine-1,1,3-trione]: the IC50 in experiment [1] is greater than 100 nM; in experiment [2] it was 10 to 100 nM.
For `Cc1noc(C)c1CCNC1CCc2cc(O)c(N3CC(=O)NS3(=O)=O)c(F)c2C1` (stereo not drawn) [Compound 290, 5-(7-{[2-(3,5-dimethyl-1,2-oxazol-4-yl)ethyl]amino}-1-fluoro-3-hydroxy-5,6,7,8-tetrahydronaphthalen-2-yl)-1λ^6,2,5-thiadiazolidine-1,1,3-trione], in that order: 1 to 10 nM and 1 to 10 nM.
`CC(Cc1ccc(C(C)C)cc1)CN1CCc2cc(O)c(N3CC(=O)NS3(=O)=O)c(F)c2C1` (stereo not drawn) [Compound 295, 5-(8-fluoro-6-hydroxy-2-{2-methyl-3-[4-(propan-2-yl)phenyl]propyl}-1,2,3,4-tetrahydroisoquinolin-7-yl)-1λ^6,2,5-thiadiazolidine-1,1,3-trione]: the half-maximal inhibitory concentration (IC50) is greater than 100 nM in experiment [1] and 10 to 100 nM in experiment [2].
With `CC(CCN1CCc2cc(O)c(N3CC(=O)NS3(=O)=O)c(F)c2C1)CC(C)(C)C` (stereo not drawn) [Compound 302, 5-[8-fluoro-6-hydroxy-2-(3,5,5-trimethylhexyl)-1,2,3,4-tetrahydroisoquinolin-7-yl]-1λ^6,2,5-thiadiazolidine-1,1,3-trione], the IC50 was in the range of 10 to 100 nM in experiment [1] and 1 to 10 nM in experiment [2].
Take `CC(O)CCOC(=O)N1Cc2c(cc(O)c(N3CC(=O)NS3(=O)=O)c2F)C(F)(F)C1` (stereo not drawn) [Compound 304, 3-hydroxybutyl 4,4,8-trifluoro-6-hydroxy-7-(1,1,4-trioxo-1λ^6,2,5-thiadiazolidin-2-yl)-3,4-dihydroisoquinoline-2(1H)-carboxylate]: the IC50 in experiment [1] and in experiment [2] was greater than 100 nM throughout.
As for `O=C1CN(c2c(O)cc3c(c2F)CC(CNCCC2CCC2)C3)S(=O)(=O)N1` (stereo not drawn) [Compound 305, 5-(2-{[(2-cyclobutylethyl)amino]methyl}-4-fluoro-6-hydroxy-2,3-dihydro-1H-inden-5-yl)-1λ^6,2,5-thiadiazolidine-1,1,3-trione], the IC50 in experiment [1] and in experiment [2] was 10 to 100 nM throughout.
For `CC(C)(O)CCOC1CCc2c(cc(O)c(N3CC(=O)NS3(=O)=O)c2F)C1` (stereo not drawn) [Compound 309, 5-[1-fluoro-3-hydroxy-6-(3-hydroxy-3-methylbutoxy)-5,6,7,8-tetrahydronaphthalen-2-yl]-1λ^6,2,5-thiadiazolidine-1,1,3-trione], the IC50 in experiment [1] and in experiment [2] was 10 to 100 nM in each case.
`O=C1CN(c2c(O)cc3c(c2F)CCC(OCC2CC2)C3)S(=O)(=O)N1` (stereo not drawn) [Compound 310, 5-[6-(cyclopropylmethoxy)-1-fluoro-3-hydroxy-5,6,7,8-tetrahydronaphthalen-2-yl]-1λ^6,2,5-thiadiazolidine-1,1,3-trione]: the 50% inhibitory concentration (IC50) in experiment [1] and in experiment [2] was 10 to 100 nM in each case.
For the compound `O=C1CN(c2c(O)cc3c(c2F)CCC(NCCCC(F)F)C3)S(=O)(=O)N1` (stereo not drawn) [Compound 311, 5-{6-[(4,4-difluorobutyl)amino]-1-fluoro-3-hydroxy-5,6,7,8-tetrahydronaphthalen-2-yl}-1λ^6,2,5-thiadiazolidine-1,1,3-trione], the 50% inhibitory concentration (IC50) in experiment [1] and in experiment [2] was 1 to 10 nM in each case.
